From US7205304B2, “Sulfonyl-Derivatives as novel inhibitors of histone deacetylase” (Janssen Pharmaceutica N.V., priority 2002, dated 2007)
Converted amounts (≈) assume the structure as drawn.

Assays:
[1] = target: histone deacetylase (HeLa nuclear extracts); test: In vitro assay for inhibition of histone deacetylase; assay type: biochemical; settings: [3H]acetylated histone H4 peptide substrate
Experimental: The in vitro assay for inhibition of histone deacetylase (see example C.1) measures the inhibition of HDAC enzymatic activity obtained with the compounds of formula (I).
HeLa nuclear extracts (supplier: Biomol) were incubated at 60 μg/ml with 2×10^−8 M of radiolabeled peptide substrate. As a substrate for measuring HDAC activity a synthetic peptide, i.e. the amino acids 14–21 of histone H4, was used. The substrate is biotinylated at the NH2-terminal part with a 6-aminohexanoic acid spacer, and is protected at the COOH-terminal part by an amide group and specifically [^3H]acetylated at lysine 16. The substrate, biotin-(6-aminohexanoic)Gly-Ala-([^3H]-acetyl-Lys-Arg-His-Arg-Lys-Val-NH2), was added in a buffer containing 25 mM Hepes, 1 M sucrose, 0.1 mg/ml BSA and 0.01% Triton X-100 at pH 7.4. After 30 min the deacetylation reaction was terminated by the addition of HCl and acetic acid. (final concentration 0.035 mM and 3.8 mM respectively). After stopping the reaction, the free ^3H-acetate was extracted with ethylacetate. After mixing and centrifugation, the radioactivity in an aliquot of the upper (organic) phase was counted in a β-counter.
For each experiment, controls (containing HeLa nuclear extract and DMSO without compound), a blank incubation (containing DMSO but no HeLa nuclear extract or compound) and samples (containing compound dissolved in DMSO and HeLa nuclear extract) were run in parallel. In first instance, compounds were tested at a concentration of 10^−5M. […] In each test the blank value was substracted from both the control and the sample values. The control sample represented 100% of substrate deactylation. For each sample the radioactivity was expressed as a percentage of the mean value of the controls. […] Herein the effects of test compounds are expressed as pIC50 (the negative log value of the IC50-value).

[2] = Kinetic solubility in aqueous media (nephelometry); assay type: physicochemical; settings: phosphate citrate buffer, pH 7.4, aqueous buffer, kinetic from dmso stock, phosphate citrate buffer pH 7.4, turbidity of three dilution steps; read-out: Solubility Score
Experimental: Kinetic solubility in aqueous media measures the ability of a compound to stay in aqueous solution upon dilution (see example C.3).
DMSO-stock solutions are diluted with a single aqueous buffer solvent in 3 consecutive steps. For every dilution turbidity is measured with a nephelometer.
In the first dilution step, 10 μl of a concentrated stock-solution of the active compound, solubilized in DMSO (5 mM), was added to 100 μl phosphate citrate buffer pH 7.4 and mixed. In the second dilution step, an aliquot (20 μl) of the first dilution step was further dispensed in 100 μl phosphate citrate buffer pH 7.4 and mixed. Finally, in the third dilution step, a sample (20 μl) of the second dilution step was further diluted in 100 μl phosphate citrate buffer pH 7.4 and mixed. All dilutions were performed in 96-well plates. Immediately after the last dilution step the turbidity of the three consecutive dilution steps were measured with a nephelometer. Dilution was done in triplicate for each compound to exclude occasional errors. Based on the turbidity measurements a ranking is performed into 3 classes. Compounds with high solubility obtained a score of 3 and for this compounds the first dilution is clear. Compounds with medium solubility obtained a score of 2. For these compounds the first dilution is unclear and the second dilution is clear. […] The solubility of 112 compounds was measured.

[3] = tested on: A2780 ovarian carcinoma cells; test: Antiproliferative activity on A2780 cells (MTT); assay type: cell-based, human; settings: Homo sapiens, A2780, 96 h, four days of incubation, read-out: Cellular activity pIC50 (converted)
Experimental: Cellular activity of the compounds of formula (I) was determined on A2780 tumour cells using a colorimetric assay for cell toxicity or survival (Mosmann Tim, Journal of Immunological Methods 65: 55–63, 1983)(see example C.2).
All compounds tested were dissolved in DMSO and further dilutions were made in culture medium. Final DMSO concentrations never exceeded 0.1% (v/v) in cell proliferation assays. Controls contained A2780 cells and DMSO without compound and blanks contained DMSO but no cells. MTT was dissolved at 5 mg/ml in PBS. A glycine buffer comprised of 0.1 M glycine and 0.1 M NaCl buffered to pH 10.5 with NaOH (1 N) was prepared (all reagents were from Merck).
The human A2780 ovarian carcinoma cells (a kind gift from Dr. T. C. Hamilton [Fox Chase Cancer Centre, Pennsylvania, USA]) were cultured in RPMI 1640 medium supplemented with 2 mM L-glutamine, 50 μg/ml gentamicin and 10% fetal calf serum. Cells were routinely kept as monolayer cultures at 37° C. in a humidified 5% CO2 atmosphere. Cells were passaged once a week using a trypsin/EDTA solution at a split ratio of 1:40. All media and supplements were obtained from Life Technologies. Cells were free of mycoplasma contamination as determined using the Gen-Probe Mycoplasma Tissue Culture kit (supplier: BioMérieux).
Cells were seeded in NUNC™ 96-well culture plates (Supplier: Life Technologies) and allowed to adhere to the plastic overnight. Densities used for plating were 1500 cells per well in a total volume of 200 μl medium. After cell adhesion to the plates, medium was changed and drugs and/or solvents were added to a final volume of 200 μl. Following four days of incubation, medium was replaced by 200 μl fresh medium and cell density and viability was assessed using an MTT-based assay. To each well, 25 μl MTT solution was added and the cells were further incubated for 2 hours at 37° C. The medium was then carefully aspirated and the blue MTT-formazan product was solubilized by addition of 25 μl glycine buffer followed by 100 μl of DMSO. […] Within an experiment, the results for each experimental condition are the mean of 3 replicate wells. For initial screening purposes, compounds were tested at a single fixed concentration of 10^−6 M. For active compounds, the experiments were repeated to establish full concentration-response curves. For each experiment, controls (containing no drug) and a blank incubation (containing no cells or drugs) were run in parallel. The blank value was subtracted from all control and sample values. For each sample, the mean value for cell growth (in absorbance units) was expressed as a percentage of the mean value for cell growth of the control. […] Herein the effects of test compounds are expressed as pIC50 (the negative log value of the IC50-value).

Enzyme activity pIC50 [1]	solubility [2] [µM]	IC50 [3] [nM]	SMILES
7.586	75.8 to 454 (≈ 35.6 to 213 µg/mL)	149	COc1ccccc1-c1ccc(S(=O)(=O)N2CCN(c3ncc(C(=O)NO)cn3)CC2)cc1 [Compound 103]
6.494	< 75.8	798	CC(C)(C)c1ccc(-c2ccc(S(=O)(=O)N3CCN(c4ncc(C(=O)NO)cn4)CC3)cc2)cc1 [Compound 105]
7.797	75.8 to 454 (≈ 34.4 to 206 µg/mL)	258	Cc1ccccc1-c1ccc(S(=O)(=O)N2CCN(c3ncc(C(=O)NO)cn3)CC2)cc1 [Compound 106]
7.663	75.8 to 454 (≈ 36 to 216 µg/mL)	144	O=C(NO)c1cnc(N2CCN(S(=O)(=O)c3ccc(-c4ccc(F)cc4F)cc3)CC2)nc1 [Compound 107]
8.117	< 75.8	209	O=C(NO)c1cnc(N2CCN(S(=O)(=O)c3ccc(-c4ccccc4Cl)cc3)CC2)nc1 [Compound 108]
7.176	75.8 to 454 (≈ 35.3 to 212 µg/mL)	258	O=C(NO)c1cnc(N2CCN(S(=O)(=O)c3ccc(/C=C/c4ccccc4)cc3)CC2)nc1 [Compound 109]
7.713	75.8 to 454 (≈ 38.5 to 231 µg/mL)	445	O=C(NO)c1cnc(N2CCN(S(=O)(=O)c3ccc(-c4ccccc4C(F)(F)F)cc3)CC2)nc1 [Compound 110]
7.561	< 75.8	440	O=C(NO)c1cnc(N2CCN(S(=O)(=O)c3ccc(-c4cccc5cccnc45)cc3)CC2)nc1 [Compound 111]
7.54	> 454	330	Cc1noc(C)c1-c1ccc(S(=O)(=O)N2CCN(c3ncc(C(=O)NO)cn3)CC2)cc1 [Compound 112]
7.428	> 454	750	O=C(NO)c1cnc(N2C[C@@H]3C[C@H]2CN3S(=O)(=O)c2ccc3ccccc3c2)nc1 [Compound 114]
8.358	> 454	47.9	CN(C)Cc1sccc1-c1ccc(S(=O)(=O)N2CCN(c3ncc(C(=O)NO)cn3)CC2)cc1 [Compound 124]
8.659	75.8 to 454 (≈ 41.9 to 251 µg/mL)	93.1	O=C(NO)c1cnc(N2CCN(S(=O)(=O)c3ccc(-c4ccccc4OCCN4CCCC4)cc3)CC2)nc1 [Compound 125]
8.482	> 454	68.9	O=C(NO)c1cnc(N2CCN(S(=O)(=O)c3ccc(-c4cccc(CCN5CCCC5)c4)cc3)CC2)nc1 [Compound 127]
8.078	75.8 to 454 (≈ 33.3 to 200 µg/mL)	81.3	O=C(NO)c1cnc(N2CCN(S(=O)(=O)c3ccc(-c4ccccc4)cc3)CC2)nc1 [Compound 128]
6.159	75.8 to 454 (≈ 41.4 to 248 µg/mL)	752	O=C(NO)c1cnc(N2CCN(S(=O)(=O)c3ccc(-c4cccc5c4sc4ccccc45)cc3)CC2)nc1 [Compound 130]
6.058	75.8 to 454 (≈ 40.1 to 241 µg/mL)	546	O=C(NO)c1cnc(N2CCN(S(=O)(=O)c3ccc(-c4cccc5c4oc4ccccc45)cc3)CC2)nc1 [Compound 131]
7.869	75.8 to 454 (≈ 35.4 to 213 µg/mL)	1260	Cc1cccc(C)c1-c1ccc(S(=O)(=O)N2CCN(c3ncc(C(=O)NO)cn3)CC2)cc1 [Compound 133]
7.662	75.8 to 454 (≈ 40.1 to 241 µg/mL)	316	COc1ccc(-c2ccc(S(=O)(=O)N3CCN(c4ncc(C(=O)NO)cn4)CC3)cc2)c(OC)c1OC [Compound 134]
7.631	> 454	287	CN(C)c1cccc(-c2ccc(S(=O)(=O)N3CCN(c4ncc(C(=O)NO)cn4)CC3)cc2)c1 [Compound 135]
7.288	< 75.8	513	Cc1cc(C)cc(-c2ccc(S(=O)(=O)N3CCN(c4ncc(C(=O)NO)cn4)CC3)cc2)c1 [Compound 136]
7.169	75.8 to 454 (≈ 32.5 to 195 µg/mL)	1120	O=C(NO)c1cnc(N2CCN(S(=O)(=O)c3ccc(-c4ccc[nH]4)cc3)CC2)nc1 [Compound 137]
7.545	75.8 to 454 (≈ 35.7 to 214 µg/mL)	249	COc1cncc(-c2ccc(S(=O)(=O)N3CCN(c4ncc(C(=O)NO)cn4)CC3)cc2)c1 [Compound 138]
8.01	> 454	286	O=C(NO)c1ccc(N2CCN(S(=O)(=O)c3ccc4ccccc4c3)CC2)nc1 [Compound 142]
7.002	> 454	1320	CN(C)CC1CN(c2ncc(C(=O)NO)cn2)CCN1S(=O)(=O)c1ccc(-c2ccccc2)cc1 (stereo not drawn) [Compound 143]
8.428	> 454	81.5	CN1CCN(Cc2sccc2-c2ccc(S(=O)(=O)N3CCN(c4ncc(C(=O)NO)cn4)CC3)cc2)CC1 [Compound 144]
8.06	< 75.8	279	O=C(NO)c1cnc(N2CCN(S(=O)(=O)c3ccc(-c4ccsc4CN(CCO)CCO)cc3)CC2)nc1 [Compound 145]
6.765	< 75.8	693	CN(C)S(=O)(=O)N1CCN(Cc2sccc2-c2ccc(S(=O)(=O)N3CCN(c4ncc(C(=O)NO)cn4)CC3)cc2)CC1 [Compound 147]
7.94	< 75.8	176	O=C(NO)c1cnc(N2CCN(S(=O)(=O)c3ccc(-c4ccsc4CN4CCOCC4)cc3)CC2)nc1 [Compound 148]
8.175	75.8 to 454 (≈ 43.4 to 260 µg/mL)	144	COC1CCN(Cc2sccc2-c2ccc(S(=O)(=O)N3CCN(c4ncc(C(=O)NO)cn4)CC3)cc2)CC1 [Compound 149]
8.011	75.8 to 454 (≈ 47.9 to 287 µg/mL)	164	O=C(NO)c1cnc(N2CCN(S(=O)(=O)c3ccc(-c4ccsc4CN4CCN(CCOCCO)CC4)cc3)CC2)nc1 [Compound 150]
